Series [1] in a line: Binding affinity to Trypanosoma brucei […] assessed as inhibition constant.
Series [2] in a line: Selectivity index, ratio of IC50 for human NHDF cells to EC50 for Trypanosoma brucei brucei. The format is functional.
The nature of series [3]: Cytotoxicity against human HeLa S3 cells assessed as cell growth inhibition. The format is toxicity, cell-based.
Series [4] is described as follows: Cytotoxicity against human HL-60 cells assessed as cell growth inhibition. Type of series: toxicity, cell-based.
The subject of series [5] is Trypanosoma brucei brucei. The series can be described thus: Antitrypanosomal activity against Trypanosoma brucei brucei assessed as reduction in parasite growth by cell-based assay. Type of series: functional, organism-based.
Series [6] in a line: Cytotoxicity against human HepG2 cells assessed as cell growth inhibition. The format is toxicity, cell-based.
A short description of series [7]: Cytotoxicity against human NHDF cells assessed as cell growth inhibition. The format is toxicity, cell-based.
Series [8] can be described thus: Cytotoxicity against human CCRF-CEM cells assessed as cell growth inhibition. Type of series: toxicity, cell-based.
Series [9] can be described thus: Selectivity index, ratio of EC50 for human MRC5 cells to EC50 for Trypanosoma brucei brucei. The format is functional.

Structures are written as SMILES. A value given as a limit tells only on which side of the number the result lay.

For orientation: Ki means a dissociation constant, usually derived from enzyme kinetics or from competition with a known ligand. In the case of `N#CCN(CCn1cc(-c2ccccc2)c2c(N)ncnc21)CCP(=O)(O)O`, the Ki in [1] stood at 9.5 µM.
On to `COc1ccc(-c2cn(CCN(CC#N)CCP(=O)(O)O)c3ncnc(N)c23)cc1`, for which the Ki in [1] is 10.9 µM.
The same measure, in the same setting: for `COc1ccc(-c2cn(CCN(CCO)CCP(=O)(O)O)c3ncnc(N)c23)cc1` the value was 2.25 µM.
Usually IC50 stands for the concentration that gives 50% inhibition. Broadly, the EC50 is the midpoint of the concentration-response curve. Take `CCOC(=O)[C@H](Cc1ccccc1)NP(=O)(CCN(CCn1cc(-c2ccccc2)c2c(N)ncnc21)CCP(=O)(N[C@@H](Cc1ccccc1)C(=O)OCC)N[C@@H](Cc1ccccc1)C(=O)OCC)N[C@@H](Cc1ccccc1)C(=O)OCC`: the “Selectivity Index” value in series [2] is given as 7.4. Moreover, the IC50 in [3] worked out at 4.9 µM; in series [4], 4.2 µM; in series [6], 6.3 µM; in series [7] it was 8.9 µM; in series [8], 3.8 µM. In [5], the EC50 turned out to be 1.21 µM.
In the case of `CCOC(=O)[C@H](Cc1ccccc1)NP(=O)(CCN(CCC#N)CCn1cc(-c2ccccc2)c2c(N)ncnc21)N[C@@H](Cc1ccccc1)C(=O)OCC`, the “Selectivity Index” value in series [2] is more than 4.8. Further, the IC50 in series [3] is more than 20 µM; in series [4], 8.6 µM; in series [6], 14.1 µM; in series [7], more than 20 µM; in series [8], 5.6 µM. Also, the concentration giving a half-maximal response (EC50) in series [5] stood at 4.19 µM.
Regarding `N#CCCN(CCn1cc(-c2ccccc2)c2c(N)ncnc21)CCP(=O)(O)O`, the Ki in series [1] came to 1.73 µM.
Same read-out and setting: the value for `Nc1ncnc2c1c(-c1ccccc1)cn2CCN(CCO)CCP(=O)(O)O` was 14.1 µM.
With `COc1ccc(-c2cn(CCN(CCP(=O)(O)O)CCP(=O)(O)O)c3ncnc(N)c23)cc1`, the Ki in [1] came to 3.97 µM.
As for `CCOC(=O)[C@H](Cc1ccccc1)NP(=O)(CCN(CCn1cc(-c2ccc(OC)cc2)c2c(N)ncnc21)CCP(=O)(N[C@@H](Cc1ccccc1)C(=O)OCC)N[C@@H](Cc1ccccc1)C(=O)OCC)N[C@@H](Cc1ccccc1)C(=O)OCC`, the “Selectivity Index” value in [2] is 16.4. In addition, the IC50 turned out to be 5.4 µM in series [3]; 4.6 µM in series [4]; 6.6 µM in series [6]; 9.5 µM in [7]; 4 µM in series [8]. The 50% effective concentration (EC50) in series [5] amounted to 0.58 µM.
For the compound `Nc1ncnc2c1ccn2[C@@H]1O[C@H](CO)[C@@H](O)[C@H]1O` [TUBERCIDIN], the “Selectivity Index” value in series [2] stood at 0.4. Also, the IC50 in series [3] stood at 0.1 µM; in series [4], 0.14 µM; in [6] it was 0.05 µM; in series [7], 0.07 µM; in series [8], 0.11 µM. Moreover, the EC50 in series [5] stood at 0.16 µM. The “Ratio EC50” value in series [9] was 4. Moreover, the Ki in [1] is approximately 330 µM.
Consider `CCOC(=O)[C@H](Cc1ccccc1)NP(=O)(CCN(CC#N)CCn1cc(-c2ccc(OC)cc2)c2c(N)ncnc21)N[C@@H](Cc1ccccc1)C(=O)OCC`, for which the “Selectivity Index” value in series [2] is on record as 3.5. The IC50 is more than 20 µM in series [3]; 6.7 µM in [4]; more than 20 µM in [6]; 7.9 µM in [7]; 4.2 µM in series [8]. In addition, the EC50 in series [5] is 2.24 µM.
In the case of `CCOC(=O)[C@H](Cc1ccccc1)NP(=O)(CCN(CCO)CCn1cc(-c2ccc(OC)cc2)c2c(N)ncnc21)N[C@@H](Cc1ccccc1)C(=O)OCC`, the “Selectivity Index” value in series [2] is 3.8. In addition, the IC50 in series [3] was more than 20 µM; in series [4], more than 20 µM; in series [6], more than 20 µM; in series [7] it was 13.2 µM; in series [8], 6.2 µM. The half-maximal effective concentration (EC50) in [5] came to 3.47 µM.
Turning to `CCOC(=O)[C@H](Cc1ccccc1)NP(=O)(CCN(CCC#N)CCn1cc(-c2ccc(OC)cc2)c2c(N)ncnc21)N[C@@H](Cc1ccccc1)C(=O)OCC`, the “Selectivity Index” value in series [2] is 2.4. Also, the IC50 was more than 20 µM in series [3]; more than 20 µM in series [4]; more than 20 µM in series [6]; 16.4 µM in series [7]; more than 20 µM in series [8]. Besides, the EC50 in [5] was determined as 6.81 µM.
Regarding `CCOC(=O)[C@H](Cc1ccccc1)NP(=O)(CCN(CCO)CCn1cc(-c2ccccc2)c2c(N)ncnc21)N[C@@H](Cc1ccccc1)C(=O)OCC`, the “Selectivity Index” value in series [2] was 10. For the same compound, the IC50 in series [3] was more than 20 µM; in series [4], more than 20 µM; in series [6], 14.7 µM; in [7], 18.9 µM; in series [8], 6.7 µM. Besides, the EC50 in series [5] was determined as 1.9 µM.
On to `COc1ccc(-c2cn(CCN(CCC#N)CCP(=O)(O)O)c3ncnc(N)c23)cc1`, for which, in series [1], the Ki is 2.2 µM.
Take `CCOC(=O)[C@H](Cc1ccccc1)NP(=O)(CCN(CC#N)CCn1cc(-c2ccccc2)c2c(N)ncnc21)N[C@@H](Cc1ccccc1)C(=O)OCC`: the “Selectivity Index” value in [2] is on record as 6.5. Moreover, the IC50 in series [3] is 11 µM; in [4], 8.7 µM; in series [6], more than 20 µM; in series [7], 10.4 µM; in series [8], 5.9 µM. The EC50 in [5] was determined as 1.61 µM.
Take `Nc1ncnc2c1c(-c1ccccc1)cn2CCN(CCP(=O)(O)O)CCP(=O)(O)O`: the Ki in [1] stood at 10.7 µM.

The record behind these values is ChEMBL document CHEMBL5338716, “Synthesis and anti-trypanosomal evaluation of novel N-branched acyclic nucleoside phosphonates bearing 7-aryl-7-deazapurine nucleobase” (Eur J Med Chem, 2022).
